Assay results published in US20110143948A1, “MOLECULAR SIGNATURES AND BIOMARKERS ASSOCIATED WITH MELANOMA AND METHODS OF USE THEREOF” (priority 2008, published 2011).

Tested on: ncRNAs (SEQ ID NO 28-89)
Experiment: ncRNA arrays of melanocytes, keratinocytes, normal skin, melanoma cell lines and patient samples
Set-up: species or system human
Details: for ncRNA array expression, patient 2: melanoma patient 2 sample compared to normal skin; for ncRNA array expression, patient 3: melanoma patient 3 sample compared to normal skin; for ncRNA array expression, patient 4: melanoma patient 4 sample compared to normal skin; for ncRNA array expression, patient 5: melanoma patient 5 sample compared to normal skin; for ncRNA array expression, patient 6: melanoma patient 6 sample compared to normal skin; for ncRNA array expression, patient 7: melanoma patient 7 sample compared to normal skin; for ncRNA array expression, patient 8: melanoma patient 8 sample compared to normal skin; for ncRNA array expression, patient 9: melanoma patient 9 sample compared to normal skin; for ncRNA array expression, patient 10: melanoma patient 10 sample compared to normal skin; for ncRNA array expression, patient 19: melanoma patient 19 sample compared to normal skin; for ncRNA array expression, patient 20: melanoma patient 20 sample compared to normal skin; for ncRNA array expression, patient 21: melanoma patient 21 sample compared to normal skin; for ncRNA array expression, patient 22: melanoma patient 22 sample compared to normal skin; for ncRNA array expression, patient 23: melanoma patient 23 sample compared to normal skin; for ncRNA array expression, patient 24: melanoma patient 24 sample compared to normal skin; for ncRNA array expression, patient 25: melanoma patient 25 sample compared to normal skin; for ncRNA array expression, patient 26: melanoma patient 26 sample compared to normal skin; for ncRNA array expression, patient 27: melanoma patient 27 sample compared to normal skin; for ncRNA array expression, patient 28: melanoma patient 28 sample compared to normal skin; for ncRNA array expression, patient 29: melanoma patient 29 sample compared to normal skin; for ncRNA array expression, patient 30: melanoma patient 30 sample compared to normal skin
Protocol: An ncRNA array platform that contains over 10,000 putative (>200 nt) ncRNAs including most of the known ncRNAs in mouse and human was conducted to evaluate ncRNAs within melanoma. Lack of coding potential was estimated by an algorithm that scores various characteristics of protein-coding genes, including open reading frame length, synonymous/non-synonymous base substitution rates and similarity to known proteins. These arrays provide the first generation of tools designed to analyze the dynamic expression of a large subset of ncRNAs in human and mouse and to identify candidate genes for more detailed functional analysis. In addition to the ncRNA content, probes targeting mRNA content from RefSeq are also included, allowing discovery of coordinated expression with associated protein-coding genes. The result of these assays is a list of ncRNA genes (i.e. SEQ ID NO 28-89) and maps of their sequence boundaries. We have profiled total RNA isolated from melanocytes, keratinocytes, normal human skin, melanoma cell lines and melanoma patient samples to identify differentially expressed ncRNAs in cell lines and tissues. ncRNAs expression in all tested samples were compared to either melanocytes or normal skin. We have identified a group of ncRNAs that are specific for (a) melanocytes (b) Keratinocytes (c) Melanoma cell lines (d) Melanoma patients. […] Probe DNA sequences for this array include: AF086032 (SEQ ID NO 107) […] BC071821 (SEQ ID NO 108) […] C AK130193 (SEQ ID NO 109) […] AL109719 (SEQ ID NO 110) […] AF085888 (SEQ ID NO 111) […] T BC033879 (SEQ ID NO 112) […] AA AK024556 (SEQ ID NO 113) […] Probe nomenclature is standard genebank IDs given by NCBI and other organizations.
Keratinocytes specific signatures were subtracted and resultant ncRNAs were validated by qRT-PCR and Northern blots. Results point out the presence of a group of melanoma specific ncRNAs (i.e. SEQ ID NO 28-89).

Row | Substance | ncRNA array expression, patient 2 | ncRNA array expression, patient 3 | ncRNA array expression, patient 4 | ncRNA array expression, patient 5 | ncRNA array expression, patient 6 | ncRNA array expression, patient 7 | ncRNA array expression, patient 8 | ncRNA array expression, patient 9 | ncRNA array expression, patient 10 | ncRNA array expression, patient 19 | ncRNA array expression, patient 20 | ncRNA array expression, patient 21 | ncRNA array expression, patient 22 | ncRNA array expression, patient 23 | ncRNA array expression, patient 24 | ncRNA array expression, patient 25 | ncRNA array expression, patient 26 | ncRNA array expression, patient 27 | ncRNA array expression, patient 28 | ncRNA array expression, patient 29 | other results
1 | SEQ ID NO 41 (CTCGTAACACTGGGAAAACTGCATACAATATTTAGAAGGAACACTAATACAGCAGAATCT; listed as DNA, chemistry not given here; listed as Homo sapiens) | −2.529 | −2.702 | −2.655 | −2.566 | −2.676 | −2.596 | −2.699 | −2.456 | −2.262 | −0.5732 | −2.545 | −2.574 | −2.212 | −1.1449 | −2.6637 | −2.4383 | −2.458 | −2.204 | −2.5405 | −2.614 | ncRNA array expression, patient 30: 0.7101
2 | SEQ ID NO 77 (AAGTTTCCACGGCAGGTTCTCGTAGCACCTTTGGTCAAGAACTGAAGGGGCCTTTAGATG; listed as DNA, chemistry not given here; listed as Homo sapiens) | −2.141 | −1.9159 | −2.042 | −1.549 | −0.8383 | −1.639 | −1.644 | −2.053 | −2.146 | −0.2581 | −1.526 | −1.23 | −0.5892 | 0.23 | −1.578 | −2.219 | −2.157 | −1.387 | −1.165 | −1.796 | ncRNA array expression, patient 30: 0.6447
3 | SEQ ID NO 65 (CACCGTTTTACTTTTTGTGGGGAGGGGAAGCAGTATCAAAATTTCTTCGGGCGCCAGAAC; listed as DNA, chemistry not given here; listed as Homo sapiens) | −1.177 | −1.344 | −1.215 | −1.301 | −1.643 | −1.264 | −1.391 | −1.267 | −0.3046 | −0.6567 | −1.283 | −1.289 | −1.03 | −1.597 | −1.241 | −1.384 | −1.415 | −1.388 | −1.421 | −1.2518 | ncRNA array expression, patient 30: 0.5803
4 | SEQ ID NO 73 (AAAGTTTCCCCATAATGCTCTTGCAAGTGAATATGAGCTGTGGTTTTTGCAGTGGAGTTA; listed as DNA, chemistry not given here; listed as Homo sapiens) | −0.1172 | 1.314 | 2.477 | −0.06181 | 1.506 | −0.179 | 1.518 | 1.007 | 1.767 | 3.505 | 0.6301 | 2.332 | 0.9622 | 0.07892 | 0.3377 | 1.57 | 1.308 | 0.1447 | 2.166 | 0.9153 | ncRNA array expression, patient 30: −0.2612
5 | SEQ ID NO 30 (ATTCCAAGGCCTATTAAAATTTCTGAGCATTGCCCATTTCTTTTGCTTTATCTGTAGGAC; DNA, backbone and methylation of C not given here; listed as Homo sapiens) | 4.3 | 3.169 | 2.472 | 3.84 | 2.191 | 4.639 | 2.888 | 0.4508 | 3.549 | 0.5363 | 1.367 | 3.468 | 1.187 | 0.3079 | −1.318 | 1.316 | 2.451 | 4.706 | 0.8038 | 4.757 | ncRNA array expression, patient 30: 1.117
6 | SEQ ID NO 45 (ATTTAGAGAACATTTAAATCTGTAAGGAAGAAAATAATAACGACTCACAATTACATCATT; listed as DNA, chemistry not given here; listed as Homo sapiens) | −1.688 | −1.56 | −1.5912 | −1.519 | −0.7528 | −0.8782 | −2.042 | −1.8261 | 1.065 | −0.8583 | −1.797 | −1.759 | −1.25 | 0.2281 | −1.588 | −2.096 | −2.174 | −1.86 | −2.069 | −1.422 | ncRNA array expression, patient 30: 0.8792
7 | SEQ ID NO 29 (TTAAATACATGTTTCTAATATTTTAGTGTTTTGTATTTAGGTTATTTATTCTTTGTATCT; DNA, backbone and methylation of C not given here; listed as Homo sapiens) | 3.623 | 2.485 | 3.452 | 2.59 | 1.012 | 2.658 | 3.211 | 2.109 | 2.287 | 0.6625 | 2.377 | 2.504 | 1.796 | 1.689 | 2.143 | 3.284 | 3.992 | 2.873 | 2.81 | 4.101 | ncRNA array expression, patient 30: −2.062
